The numbers were not newly measured in patent US6723530B1, “Polynucleotides encoding proexendin, and methods and uses thereof” (Amylin Pharmaceuticals, Inc., priority 1997, dated 2004), which cites them from elsewhere.

No end group written: not given here.

In series [1] the test system is guinea pig acinar cell preparations.
Series [2] relates to cultured islet cell lines. The conditions noted are these: cultured islet cell lines in vitro.

For exendin 4, the cAMP levels entry in series [1] was “increased”. Also, in series [2], the cAMP accumulation entry was “increase”, the glucose-dependent insulin secretion entry is “stimulate” and the insulin gene expression result is on record as “increase”. The “mode of action towards GLP-1 (agonist / antagonist)” value with GLP-1 was “strong agonist”.
For the substance “exendin 4(9-39)NH3: truncated exendin 4, competitive antagonist of both exendin 4 and GLP-1”, the “mode of action towards GLP-1 (agonist / antagonist)” value in the series on GLP-1 is on record as “competitive antagonist”.
In the case of “truncated GLP-1[7-36)-amide: truncated mammalian GLP-1 peptide amide (HAEGTFTSDVSSYLEGQAAKEFIAWLVKGR-NH2)”, the cAMP levels result in series [1] was “increased”.
